Laboratory results from patent publication EP0025288A1, “Derivatives of monic acid, processes for their preparation, compositions containing them and their preparation” (priority 1979, dated 1981).
≈ marks a conversion by molar mass, not a printed value.

How the values were obtained:
Format in all cases: cell-based
M. suipneumoniae JF 435 = test: MIC, anti-mycoplasmal, Friis broth solidified with 0.9% agarose; details: Mesomycoplasma hyopneumoniae, JF435, 144 h, inoculum 10^3 to 10^5 C.F.U., 6 days incubation at 37°C, read-out: in vitro MIC
[1] = tested on: Strep suis (group D) SPS11; test: MIC, veterinary bacteria; details: veterinary bacteria (Table 2), read-out: MIC
S typhimurium S18 = test: MIC, veterinary bacteria; details: veterinary bacteria (Table 2), read-out: MIC
E coli NCTC 10418 = test: MIC, veterinary bacteria; details: veterinary bacteria (Table 2), read-out: MIC
Strep dysgalaciae SPD1 = test: MIC, veterinary bacteria; details: veterinary bacteria (Table 2), read-out: MIC
[2] = tested on: M. bovigenitalium ATCC 14173; test: MIC, anti-mycoplasmal, Friis broth solidified with 0.9% agarose; details: 144 h, inoculum 10^3 to 10^5 C.F.U., 6 days incubation at 37°C, read-out: in vitro MIC
M. suipneumoniae MS 16 = test: as above; details: Mesomycoplasma hyopneumoniae, MS16, 144 h, inoculum 10^3 to 10^5 C.F.U., 6 days incubation at 37°C, read-out: in vitro MIC
[3] = tested on: M. hyosynoviae ATCC 25591; test: as above; details: 144 h, inoculum 10^3 to 10^5 C.F.U., 6 days incubation at 37°C, read-out: in vitro MIC
M. suipneumoniae Str. 11 = test: as above; details: Mesomycoplasma hyopneumoniae, 144 h, inoculum 10^3 to 10^5 C.F.U., 6 days incubation at 37°C, read-out: in vitro MIC
E coli E1 = test: MIC, veterinary bacteria; details: veterinary bacteria (Table 2), read-out: MIC
Bord bronchiseptica BO8 = test: MIC, veterinary bacteria; details: veterinary bacteria (Table 2), read-out: MIC
M. suipneumoniae TAM 6N = test: MIC, anti-mycoplasmal, Friis broth solidified with 0.9% agarose; details: Mesomycoplasma hyopneumoniae, TAM6N, 144 h, inoculum 10^3 to 10^5 C.F.U., 6 days incubation at 37°C, read-out: in vitro MIC
[4] = tested on: Erysipelothrix rhusiopathiae NCTC 8163; test: MIC, veterinary bacteria; details: NCTC8163, veterinary bacteria (Table 2), read-out: MIC
M. suipneumoniae NB12 = test: MIC, anti-mycoplasmal, Friis broth solidified with 0.9% agarose; details: Mesomycoplasma hyopneumoniae, 144 h, inoculum 10^3 to 10^5 C.F.U., 6 days incubation at 37°C, read-out: in vitro MIC
M. dispar NCTC 10125 = test: as above; details: 144 h, inoculum 10^3 to 10^5 C.F.U., 6 days incubation at 37°C, read-out: in vitro MIC
[5] = tested on: Staph aureus 152 (pen sens); test: MIC, veterinary bacteria; details: Staphylococcus aureus, veterinary bacteria (Table 2), read-out: MIC
Staph aureus Oxford = test: MIC, veterinary bacteria; details: Staphylococcus aureus, veterinary bacteria (Table 2), read-out: MIC
Strep uberis SPU1 = test: MIC, veterinary bacteria; details: veterinary bacteria (Table 2), read-out: MIC
Bord bronchisptica BO9 = test: MIC, veterinary bacteria; details: veterinary bacteria (Table 2), read-out: MIC
Past Haemolytica PA5 = test: MIC, veterinary bacteria; details: veterinary bacteria (Table 2), read-out: MIC
[6] = tested on: M. suipneumoniae NCTC 10110; test: MIC, anti-mycoplasmal, Friis broth solidified with 0.9% agarose; details: Mesomycoplasma hyopneumoniae, NCTC10110, 144 h, inoculum 10^3 to 10^5 C.F.U., 6 days incubation at 37°C, read-out: in vitro MIC
S dublin S7 = test: MIC, veterinary bacteria; details: veterinary bacteria (Table 2), read-out: MIC
M. pneumoniae ATCC 15492 = test: MIC, anti-mycoplasmal, Friis broth solidified with 0.9% agarose; details: Mycoplasmoides pneumoniae, ATCC15492, 144 h, inoculum 10^3 to 10^5 C.F.U., 6 days incubation at 37°C, read-out: in vitro MIC
M. gallisepticum S6 = test: as above; details: Mycoplasmoides gallisepticum, 144 h, inoculum 10^3 to 10^5 C.F.U., 6 days incubation at 37°C, read-out: in vitro MIC
Past multocida PA1 = test: MIC, veterinary bacteria; details: veterinary bacteria (Table 2), read-out: MIC
M. hyorhinis ATCC 23234 = test: MIC, anti-mycoplasmal, Friis broth solidified with 0.9% agarose; details: Mesomycoplasma hyorhinis, ATCC23234, 144 h, inoculum 10^3 to 10^5 C.F.U., 6 days incubation at 37°C, read-out: in vitro MIC
[7] = tested on: M. suipneumoniae J2206/183b; test: as above; details: Mesomycoplasma hyopneumoniae, 144 h, inoculum 10^3 to 10^5 C.F.U., 6 days incubation at 37°C, read-out: in vitro MIC
Strep agalactiae SPA1 = test: MIC, veterinary bacteria; details: veterinary bacteria (Table 2), read-out: MIC
M. bovis NCTC 10131 = test: microbe, parasite or virus in culture; details: NCTC10131, 144 h, read-out: in vitro MIC
M. hyorhinis ATCC 25021 = test: MIC, anti-mycoplasmal, Friis broth solidified with 0.9% agarose; details: Mesomycoplasma hyorhinis, ATCC25021, 144 h, inoculum 10^3 to 10^5 C.F.U., 6 days incubation at 37°C, read-out: in vitro MIC
M. suipneumoniae HK(2) = test: as above; details: Mesomycoplasma hyopneumoniae, 144 h, inoculum 10^3 to 10^5 C.F.U., 6 days incubation at 37°C, read-out: in vitro MIC
[8] = tested on: Staph aureus B4 (pen resis); test: MIC, veterinary bacteria; details: Staphylococcus aureus, veterinary bacteria (Table 2), read-out: MIC
Past multocida PA2 = test: MIC, veterinary bacteria; details: veterinary bacteria (Table 2), read-out: MIC
[9] = tested on: M. suipneumoniae PW/C/210; test: MIC, anti-mycoplasmal, Friis broth solidified with 0.9% agarose; details: Mesomycoplasma hyopneumoniae, 144 h, inoculum 10^3 to 10^5 C.F.U., 6 days incubation at 37°C, read-out: in vitro MIC
[10] = tested on: Corynebacterium pyogenes CY1; test: MIC, veterinary bacteria; details: veterinary bacteria (Table 2), read-out: MIC
M. suipneumoniae LABER = test: MIC, anti-mycoplasmal, Friis broth solidified with 0.9% agarose; details: Mesomycoplasma hyopneumoniae, 144 h, inoculum 10^3 to 10^5 C.F.U., 6 days incubation at 37°C, read-out: in vitro MIC
M. suipneumoniae UCD 1 = test: as above; details: Mesomycoplasma hyopneumoniae, UCD1, 144 h, inoculum 10^3 to 10^5 C.F.U., 6 days incubation at 37°C, read-out: in vitro MIC
[11] = tested on: M. suipneumoniae ATCC 25095; test: as above; details: Mesomycoplasma hyopneumoniae, ATCC25095, 144 h, inoculum 10^3 to 10^5 C.F.U., 6 days incubation at 37°C, read-out: in vitro MIC

CC(=CC(=O)OC1CCCC(=O)CCC1)CC1OCC(CC2OC2C(C)C(C)O)C(O)C1O (centres unmarked) [Example 10, Cyclooctan-5-onyl monate A]
MIC (M. suipneumoniae JF 435): 2.5 µg/mL (≈ 5.34 µM) | MIC [1]: 80 µg/mL (≈ 171 µM) | MIC (S typhimurium S18): > 80 µg/mL | MIC (E coli NCTC 10418): > 80 µg/mL | MIC (Strep dysgalaciae SPD1): 5 µg/mL (≈ 10.7 µM) | MIC [2]: 0.05 µg/mL (≈ 0.107 µM) | MIC (M. suipneumoniae MS 16): 1 µg/mL (≈ 2.13 µM) | MIC [3]: 0.25 µg/mL (≈ 0.534 µM) | MIC (M. suipneumoniae Str. 11): 1 µg/mL (≈ 2.13 µM) | MIC (E coli E1): > 80 µg/mL | MIC (Bord bronchiseptica BO8): > 80 µg/mL | MIC (M. suipneumoniae TAM 6N): 2.5 µg/mL (≈ 5.34 µM) | MIC [4]: 80 µg/mL (≈ 171 µM) | MIC (M. suipneumoniae NB12): 2.5 µg/mL (≈ 5.34 µM) | MIC (M. dispar NCTC 10125): 0.5 µg/mL (≈ 1.07 µM) | MIC [5]: 2.5 µg/mL (≈ 5.34 µM) | MIC (Staph aureus Oxford): 2.5 µg/mL (≈ 5.34 µM) | MIC (Strep uberis SPU1): 1.25 µg/mL (≈ 2.67 µM) | MIC (Bord bronchisptica BO9): 80 µg/mL (≈ 171 µM) | MIC (Past Haemolytica PA5): 40 µg/mL (≈ 85.4 µM) | MIC [6]: 1 µg/mL (≈ 2.13 µM) | MIC (S dublin S7): > 80 µg/mL | MIC (M. pneumoniae ATCC 15492): 10 µg/mL (≈ 21.3 µM) | MIC (M. gallisepticum S6): > 10 µg/mL | MIC (Past multocida PA1): 40 µg/mL (≈ 85.4 µM) | MIC (M. hyorhinis ATCC 23234): 1 µg/mL (≈ 2.13 µM) | MIC [7]: 2.5 µg/mL (≈ 5.34 µM) | MIC (Strep agalactiae SPA1): 10 µg/mL (≈ 21.3 µM) | MIC (M. bovis NCTC 10131): 0.025 µg/mL (≈ 0.0534 µM) | MIC (M. hyorhinis ATCC 25021): 1 µg/mL (≈ 2.13 µM) | MIC (M. suipneumoniae HK(2)): 2.5 µg/mL (≈ 5.34 µM) | MIC [8]: 2.5 µg/mL (≈ 5.34 µM) | MIC (Past multocida PA2): 1.25 µg/mL (≈ 2.67 µM) | MIC [9]: 1 µg/mL (≈ 2.13 µM) | MIC [10]: 80 µg/mL (≈ 171 µM) | MIC (M. suipneumoniae LABER): 1 µg/mL (≈ 2.13 µM) | MIC (M. suipneumoniae UCD 1): 1 µg/mL (≈ 2.13 µM) | MIC [11]: 1 µg/mL (≈ 2.13 µM)
